According to patent publication US8507509B2, “Saturated and insaturated bi- or tricyclic aryloxyacetamine derivatives and their use as fungicides” (Syngenta Crop Protection LLC, priority 2007, dated 2013):

What was measured:
Pythium ultimum = Pythium ultimum (Damping off), liquid culture growth inhibition in potato dextrose broth; assay type: cell-based; conditions: Globisporangium ultimum; 20 ppm; potato dextrose broth, 24° C.; inhibition of growth determined photometrically after 48 hours; read-out: control of fungal infection, Pythium ultimum
Septoria tritici = Septoria tritici (leaf blotch), liquid culture growth inhibition in nutrient broth; assay type: cell-based; conditions: Zymoseptoria tritici; 200 ppm; PDB broth, 24 C; inhibition of growth determined photometrically after 72 hrs; read-out: control of fungal infection, Septoria tritici
Phytophthora infestans = test: whole plant or invertebrate; assay type: in vivo; conditions: in Solanum lycopersicum, foliar, 96 h, read-out: control of fungal infection, Phytophthora infestans
Septoria nodorum = Septoria nodorum (wheat glume blotch), wheat leaf segment assay, preventive; assay type: in vivo; conditions: Parastagonospora nodorum, foliar, 96 h; 200 ppm; wheat leaf segments; assessed four days after inoculation; read-out: control of fungal infection, Septoria nodorum
[1] = test system: Erysiphe graminis f.sp. tritici; test: Erysiphe graminis f.sp. tritici (wheat powdery mildew), wheat leaf segment assay, preventive; assay type: in vivo; conditions: Blumeria graminis, foliar, 96 h; 200 ppm; wheat leaf segments; assessed four days after inoculation; read-out: control of fungal infection, Etysiphe graminis f.sp. tritici
Plasmopara viticola = Plasmopara viticola (downy mildew of grapevine), grapevine leaf disk assay, preventive; assay type: in vivo; conditions: foliar, 168 h, 200 ppm, grapevine leaf disks, assessed seven days after inoculation, read-out: control of fungal infection, Plasmopara viticola
Fusarium culmorum = Fusarium culmorum (root rot), liquid culture growth inhibition in nutrient broth; assay type: cell-based; conditions: PDB broth, 24 C, inhibition of growth determined photometrically after 48 hrs, read-out: control of fungal infection, Fusarium culmorum
Description: Mycelia fragments or conidia suspensions of a fungus, prepared either freshly from liquid cultures of the fungus or from cryogenic storage, are directly mixed into nutrient broth. DMSO solutions of the test compound (max. 10 mg/ml) is diluted with 0.025% Tween20 by factor 50 and 10 μl of this solution is pipetted into a microtiter plate (96-well format) and the nutrient broth containing the fungal spores/mycelia fragments is then added to give an end concentration of the tested compound. The test plates are incubated at 24° C. and 96% rH in the dark. The inhibition of fungal growth is determined photometrically after 2-6 days and antifungal activity is calculated.
Fusarium culmorum (root rot): Conidia of the fungus from cryogenic storage were directly mixed into nutrient broth (PDB potato dextrose broth). After placing a (DMSO) solution of the test compounds into a microtiter plate (96-well format) the nutrient broth containing the fungal spores was added. The test plates were incubated at 24 C and the inhibition of growth was determined photometrically after 48 hrs.

Botrytis cinerea = Botrytis cinerea (grey mould), bean leaf disk assay, preventive; assay type: in vivo; conditions: foliar, 96 h, 200 ppm, bean leaf disks, assessed four days after inoculation, read-out: control of fungal infection, Botrytis cinerea

C#CCON=CC(C)(C)NC(=O)C(Oc1ccc2ncc(Br)cc2c1)SC (stereo not shown) [Compound No. 17, 2-(3-Bromo-quinolin-6-yloxy)-N-(1,1-dimethyl-2-prop-2-ynyloxyimino-ethyl)-2-methylsulfanyl-acetamide]
≥ 60%: inhibition of growth at 20 ppm (Pythium ultimum) | inhibition of growth at 200 ppm (Septoria tritici) | pest or weed control at 200 ppm (Phytophthora infestans) | pest or weed control at 200 ppm (Septoria nodorum) | pest or weed control at 200 ppm [1] | pest or weed control at 200 ppm (Plasmopara viticola)

CSC(Oc1cc(C)c2ncc(Br)cc2c1)C(=O)NC(C)(C)C=NOc1ccccc1 (stereo not shown) [Compound No. 23, 2-(3-Bromo-8-methyl-quinolin-6-yloxy)-N-(1,1-dimethyl-2-phenoxyimino-ethyl)-2-methylsulfanyl-acetamide]
≥ 60%: inhibition of growth at 20 ppm (Pythium ultimum) | pest or weed control at 200 ppm (Phytophthora infestans) | pest or weed control at 200 ppm (Septoria nodorum) | pest or weed control at 200 ppm [1] | inhibition of growth at 200 ppm (Fusarium culmorum) | pest or weed control at 200 ppm (Plasmopara viticola)

CON=CC(C)(C)NC(=O)C(Oc1cc(C)c2ncc(Br)cc2c1)SC (stereo not shown) [Compound No. 26, 2-(3-Bromo-8-methyl-quinolin-6-yloxy)-N-(2-methoxyimino-1,1-dimethyl-ethyl)-2-methylsulfanyl-acetamide]
≥ 60%: inhibition of growth at 200 ppm (Septoria tritici) | pest or weed control at 200 ppm (Phytophthora infestans) | pest or weed control at 200 ppm (Septoria nodorum) | pest or weed control at 200 ppm [1] | inhibition of growth at 200 ppm (Fusarium culmorum)

C#CCON=CC(C)(C)NC(=O)C(Oc1cc(C)c2ncc(Br)cc2c1)SC (stereo not shown) [Compound No. 29, 2-(3-Bromo-8-methyl-quinolin-6-yloxy)-N-(1,1-dimethyl-2-prop-2-ynyloxyimino-ethyl)-2-methylsulfanyl-acetamide]
≥ 60%: inhibition of growth at 20 ppm (Pythium ultimum) | pest or weed control at 200 ppm (Phytophthora infestans) | pest or weed control at 200 ppm (Septoria nodorum) | pest or weed control at 200 ppm [1] | inhibition of growth at 200 ppm (Fusarium culmorum) | pest or weed control at 200 ppm (Plasmopara viticola)

CCON=CC(C)(C)NC(=O)C(Oc1cc(Br)c2ncc(Br)cc2c1)SC (stereo not shown) [Compound No. 33, 2-(3,8-Dibromo-quinolin-6-yloxy)-N-(2-ethoxyimino-1,1-dimethyl-ethyl)-2-methylsulfanyl-acetamide]
≥ 60%: pest or weed control at 200 ppm (Botrytis cinerea) | inhibition of growth at 200 ppm (Septoria tritici) | pest or weed control at 200 ppm (Plasmopara viticola)

CCCCON=CCC(C)(C)NC(=O)C(Oc1cc(C)c2ncc(I)cc2c1)SC (stereo not shown) [Compound No. 39, N-(3-Butoxyimino-1,1-dimethyl-propyl)-2-(3-iodo-8-methyl-quinolin-6-yloxy)-2-methylsulfanylacetamide]
≥ 60%: pest or weed control at 200 ppm (Botrytis cinerea) | inhibition of growth at 200 ppm (Septoria tritici)

CON=CCC(C)NC(=O)C(Oc1ccc2ncc(I)cc2c1)SC (stereo not shown) [Compound No. 48, 2-(3-Iodo-quinolin-6-yloxy)-N-(3-methoxyimino-1-methyl-propyl)-2-methylsulfanyl-acetamide]
≥ 60%: inhibition of growth at 200 ppm (Septoria tritici) | pest or weed control at 200 ppm (Septoria nodorum) | pest or weed control at 200 ppm [1] | inhibition of growth at 200 ppm (Fusarium culmorum)

C=CCON=CC(C)(C)NC(=O)C(Oc1ccc2ncc(I)cc2c1)SC (stereo not shown) [Compound No. 52, N-(2-Allyloxyimino-1,1-dimethyl-ethyl)-2-(3-iodo-quinolin-6-yloxy)-2-methylsulfanyl-acetamide]
≥ 60%: inhibition of growth at 20 ppm (Pythium ultimum) | pest or weed control at 200 ppm (Phytophthora infestans) | inhibition of growth at 200 ppm (Fusarium culmorum) | pest or weed control at 200 ppm (Plasmopara viticola)

COCC(C)(C=NOC)NC(=O)C(Oc1cc(C)c2ncc(Br)cc2c1)SC (stereo not shown) [Compound No. 63, 2-(3-Bromo-8-methyl-quinolin-6-yloxy)-N-(2-methoxyimino-1-methoxymethyl-1-methyl-ethyl)-2-methylsulfanyl-acetamide]
≥ 60%: inhibition of growth at 200 ppm (Septoria tritici) | pest or weed control at 200 ppm (Phytophthora infestans) | pest or weed control at 200 ppm (Septoria nodorum) | pest or weed control at 200 ppm [1] | pest or weed control at 200 ppm (Plasmopara viticola)

CON=CCC(C)NC(=O)C(Oc1cc(C)c2ncc(I)cc2c1)SC (stereo not shown) [Compound No. 105, 2-(3-Iodo-8-methyl-quinolin-6-yloxy)-N-(3-methoxyimino-1-methyl-propyl)-2-methylsulfanyl-acetamide]
≥ 60%: inhibition of growth at 20 ppm (Pythium ultimum) | inhibition of growth at 200 ppm (Septoria tritici) | pest or weed control at 200 ppm [1] | inhibition of growth at 200 ppm (Fusarium culmorum)

C#Cc1cnc2c(C)cc(OC(SC)C(=O)NC(C)(C)C=NOC)cc2c1 (stereo not shown) [Compound No. 112, 2-(3-Ethynyl-8-methyl-quinolin-6-yloxy)-N-(2-methoxyimino-1,1-dimethyl-ethyl)-2-methylsulfanyl-acetamide]
≥ 60%: inhibition of growth at 20 ppm (Pythium ultimum) | pest or weed control at 200 ppm (Phytophthora infestans) | pest or weed control at 200 ppm (Septoria nodorum) | inhibition of growth at 200 ppm (Fusarium culmorum) | pest or weed control at 200 ppm (Plasmopara viticola)

C#Cc1cnc2c(C)cc(OC(SC)C(=O)NC(C)(C)C=NOCC)cc2c1 (stereo not shown) [Compound No. 113, N-(2-Ethoxyimino-1,1-dimethyl-ethyl)-2-(3-Ethynyl-8-methyl-quinolin-6-yloxy)-2-methylsulfanyl-acetamide]
≥ 60%: inhibition of growth at 20 ppm (Pythium ultimum) | pest or weed control at 200 ppm (Phytophthora infestans) | pest or weed control at 200 ppm (Septoria nodorum) | inhibition of growth at 200 ppm (Fusarium culmorum) | pest or weed control at 200 ppm (Plasmopara viticola)

C#Cc1cnc2c(C)cc(OC(SC)C(=O)NC(C)(C)C=NOCC=C)cc2c1 (stereo not shown) [Compound No. 114, N-(2-Allyloxyimino-1,1-dimethyl-ethyl)-2-(3-Ethynyl-8-methyl-quinolin-6-yloxy)-2-methylsulfanyl-acetamide]
≥ 60%: pest or weed control at 200 ppm (Phytophthora infestans) | pest or weed control at 200 ppm (Septoria nodorum) | pest or weed control at 200 ppm [1] | inhibition of growth at 200 ppm (Fusarium culmorum) | pest or weed control at 200 ppm (Plasmopara viticola)

C#Cc1cnc2c(Cl)cc(OC(SC)C(=O)NC(C)(C)C=NOC)cc2c1 (stereo not shown) [Compound No. 115, 2-(8-Chloro-3-ethynyl-quinolin-6-yloxy)-N-(2-methoxyimino-1,1-dimethyl-ethyl)-2-methylsulfanyl-acetamide]
≥ 60%: inhibition of growth at 20 ppm (Pythium ultimum) | pest or weed control at 200 ppm (Phytophthora infestans) | pest or weed control at 200 ppm (Septoria nodorum) | pest or weed control at 200 ppm [1] | inhibition of growth at 200 ppm (Fusarium culmorum) | pest or weed control at 200 ppm (Plasmopara viticola)

C=CCON=C(Cc1ccccn1)C(C)(C)NC(=O)C(Oc1ccc2ncc(Br)cc2c1)SC (stereo not shown) [Compound No. 129, N-{2-[(E or Z)-Allyloxyimino]-1,1-dimethyl-3-pyridin-2-yl-propyl}-2-(3-bromo-quinolin-6-yloxy)-2-methylsulfanyl-acetamide]
≥ 60%: pest or weed control at 200 ppm (Botrytis cinerea) | inhibition of growth at 200 ppm (Septoria tritici)

CON=C(c1ccccc1)C(C)(C)NC(=O)C(Oc1ccc2ncc(Br)cc2c1)SC (stereo not shown) [Compound No. 130, 2-(3-Bromo-quinolin-6-yloxy)-N-{2-[(E or Z)-methoxyimino]-1,1-dimethyl-2-phenyl-ethyl}-2-methylsulfanyl-acetamide]
≥ 60%: inhibition of growth at 20 ppm (Pythium ultimum) | inhibition of growth at 200 ppm (Septoria tritici) | pest or weed control at 200 ppm (Phytophthora infestans) | pest or weed control at 200 ppm (Septoria nodorum) | pest or weed control at 200 ppm [1] | pest or weed control at 200 ppm (Plasmopara viticola)

C#Cc1cnc2ccc(OC(CC)C(=O)NC(C)(C)C=NOC)cc2c1 (stereo not shown) [Compound No. 131, 2-(3-Ethynyl-quinolin-6-yloxy)-N-(2-methoxyimino-1,1-dimethyl-ethyl)-butyramide]
≥ 60%: inhibition of growth at 20 ppm (Pythium ultimum) | inhibition of growth at 200 ppm (Septoria tritici) | pest or weed control at 200 ppm (Phytophthora infestans) | pest or weed control at 200 ppm (Septoria nodorum) | pest or weed control at 200 ppm [1] | pest or weed control at 200 ppm (Plasmopara viticola)

C#Cc1cnc2c(C)cc(OC(CC)C(=O)NC(C)(C)C=NOC)cc2c1 (stereo not shown) [Compound No. 132, 2-(3-Ethynyl-8-methyl-quinolin-6-yloxy)-N-(2-methoxyimino-1,1-dimethyl-ethyl)-butyramide]
≥ 60%: inhibition of growth at 20 ppm (Pythium ultimum) | inhibition of growth at 200 ppm (Septoria tritici) | pest or weed control at 200 ppm (Phytophthora infestans) | pest or weed control at 200 ppm (Septoria nodorum) | pest or weed control at 200 ppm [1] | pest or weed control at 200 ppm (Plasmopara viticola)

CSC(Oc1ccc2ncc(I)cc2c1)C(=O)NC(C)(C)C=NO (stereo not shown) [Compound No. 153, N-(2-Hydroxyimino-1,1-dimethyl-ethyl)-2-(3-iodo-quinolin-6-yloxy)-2-methylsulfanyl-acetamide]
≥ 60%: inhibition of growth at 20 ppm (Pythium ultimum) | inhibition of growth at 200 ppm (Septoria tritici) | pest or weed control at 200 ppm (Phytophthora infestans) | pest or weed control at 200 ppm [1] | inhibition of growth at 200 ppm (Fusarium culmorum) | pest or weed control at 200 ppm (Plasmopara viticola)

CCC(Oc1cc2cc(Br)cnc2cc1F)C(=O)NC(C)(C)C=NOC (stereo not shown) [Compound No. 154, 2-(3-Bromo-7-fluoro-quinolin-6-yloxy)-N-(2-methoxyimino-1,1-dimethyl-ethyl)-butyramide]
≥ 60%: inhibition of growth at 200 ppm (Septoria tritici) | pest or weed control at 200 ppm (Phytophthora infestans) | pest or weed control at 200 ppm (Septoria nodorum) | pest or weed control at 200 ppm [1] | pest or weed control at 200 ppm (Plasmopara viticola)
